The values below come from patent publication US20110280812A1, “FLAVOR-ENHANCING AMIDE COMPOUNDS” (priority 2010, published 2011).

Test [1] deals with trained sensory panel. As to the kind of experiment: Sensory panel evaluation of MSG-IMP mixture combined with Formulas II-IV. The format is in vivo. The note with it: 0.01% MSG and 0.005% IMP; for effect on umami flavor of the MSG-IMP mixture: summary, no concentration stated. From the text: The MSG-inosine monophosphate (IMP) mixture (0.01% MSG and 0.005% IMP), an umami composition, was combined with Formulas II-IV at different concentrations and evaluated by a trained sensory panel.

The test system of test [2] is trained sensory panel. The test can be described thus: Sensory panel evaluation of MSG (0.02%) combined with Formula II. In kind it is in vivo. Here is the method: The flavor compositions of MSG (0.02%) combined with (2E,4E)-N-phenethylundeca-2,4-dien-8,10-diynamide (Formula II) at different concentrations were evaluated by a trained sensory panel using an intensity scale of 0 to 5, where 0=none, 1=minimal, 3=moderate, and 5=intense. Averaged sensory scores were reported in the following: […]

With `C#CC#CCC/C=C/C=C/C(=O)NCC(C)CC` (stereo not drawn) [Formula IV, (2E,4E)-N-(2-methylbutyl)undeca-2,4-dien-8,10-diynamide], the “effect on umami flavor of the MSG-IMP mixture” value in the test with trained sensory panel [1] is given as “enhanced the umami flavor of the MSG-IMP mixture”.

With `C#CC#CCC/C=C/C=C/C(=O)NCCc1ccccc1` [Formula II, (2E,4E)-N-phenethylundeca-2,4-dien-8,10-diynamide], the “Flavor Profile: effect on umami flavor of the MSG-IMP mixture” value in the test on trained sensory panel [1] (amide at 500 ppb) was “strongest enhancement”. Besides, the “effect on umami flavor of the MSG-IMP mixture” value in the test with trained sensory panel [1] is given as “enhanced the umami flavor of the MSG-IMP mixture”. Also, the “effect on umami flavor of MSG” value in the test on trained sensory panel [2] (summary over the concentrations tested) is on record as “enhanced the umami flavor of MSG”.

For the compound `N[C@@H](CCC(=O)O)C(=O)[O-].[Na+]` [MSG, monosodium glutamate], the “Flavor Profile” value in the test on trained sensory panel [2] (Formula II 0) is given as “umami”. Further, in the test with trained sensory panel [2] (Formula II 0, averaged sensory score, scale 0 to 5 (0=none, 1=minimal, 3=moderate, 5=intense)), the “Flavor Intensity” value was found to be 1.0.
